Assay results published in PubChem BioAssay AID248 (DTP/NCI, 2004).
Several values for one entry are separate records, joined by “and”; a condition that tells them apart may be missing. Identical values can stand only once. Toxic doses and inconclusive results are not listed. Cut-off read from the data, not from the text of the source: active = T/C of 150% or more; inactive = T/C below 125%.

System: L1210 leukemia ip in BDF1 mice, survival T/C
Assay: NCI In Vivo Anticancer Drug Screen. Data for tumor model L1210 Leukemia (intraperitoneal) in B6D2F1 (BDF1) mice
Details: endpoint: mean survival time, higher = longer survival
Procedure, shortened: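 Antitumor effect is assessed in tumor-bearing animals. Survival in the compound arm is compared with a vehicle-dosed control arm and expressed as their quotient.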

[1] = dose: 100.0 mg/kg/injection, schedule: Q01DX001 (ip), vehicle: Klucel (hydroxypropylcellulose) (HPC)
[2] = dose: 100.0 mg/kg/injection, schedule: Q04DX003 (ip), vehicle: Klucel (hydroxypropylcellulose) (HPC)
[3] = dose: 200.0 mg/kg/injection, schedule: Q01DX001 (ip), vehicle: Klucel (hydroxypropylcellulose) (HPC)
[4] = dose: 200.0 mg/kg/injection, schedule: Q04DX003 (ip), vehicle: Klucel (hydroxypropylcellulose) (HPC)
[5] = dose: 400.0 mg/kg/injection, schedule: Q04DX003 (ip), vehicle: Klucel (hydroxypropylcellulose) (HPC)
[6] = dose: 100.0 mg/kg/injection, schedule: Q01DX001 (ip), vehicle: carboxymethylcellulose (CMC)
[7] = dose: 200.0 mg/kg/injection, schedule: Q01DX001 (ip), vehicle: carboxymethylcellulose (CMC)
[8] = dose: 400.0 mg/kg/injection, schedule: Q01DX001 (ip), vehicle: carboxymethylcellulose (CMC)
[9] = dose: 100.0 mg/kg/injection, schedule: Q01DX001 (ip), vehicle: saline
[10] = dose: 200.0 mg/kg/injection, schedule: Q01DX001 (ip), vehicle: saline
[11] = dose: 400.0 mg/kg/injection, schedule: Q01DX001 (ip), vehicle: saline
[12] = dose: 50.0 mg/kg/injection, schedule: Q01DX001 (ip), vehicle: carboxymethylcellulose (CMC)
[13] = dose: 100.0 mg/kg/injection, schedule: Q01DX009 (ip), vehicle: Klucel (hydroxypropylcellulose) (HPC)
[14] = dose: 200.0 mg/kg/injection, schedule: Q01DX009 (ip), vehicle: Klucel (hydroxypropylcellulose) (HPC)
[15] = dose: 50.0 mg/kg/injection, schedule: Q01DX001 (ip), vehicle: saline
[16] = dose: 100.0 mg/kg/injection, schedule: Q01DX009 (ip), vehicle: saline
[17] = dose: 100.0 mg/kg/injection, schedule: Q04DX003 (ip), vehicle: saline
[18] = dose: 200.0 mg/kg/injection, schedule: Q01DX009 (ip), vehicle: saline
[19] = dose: 200.0 mg/kg/injection, schedule: Q04DX003 (ip), vehicle: saline
[20] = dose: 400.0 mg/kg/injection, schedule: Q04DX003 (ip), vehicle: saline
[21] = dose: 16.0 mg/kg/injection, schedule: Q01DX Z (ip), vehicle: methylcellulose (MC)
[22] = dose: 31.0 mg/kg/injection, schedule: Q01DX Z (ip), vehicle: methylcellulose (MC)
[23] = dose: 62.0 mg/kg/injection, schedule: Q01DX Z (ip), vehicle: methylcellulose (MC)
[24] = dose: 125.0 mg/kg/injection, schedule: Q01DX Z (ip), vehicle: methylcellulose (MC)
[25] = dose: 100.0 mg/kg/injection, schedule: Q04DX002 (ip), vehicle: saline with Tween-80
[26] = dose: 200.0 mg/kg/injection, schedule: Q04DX002 (ip), vehicle: saline with Tween-80

Measured: T/C

CC(C)(C)OC(=O)C1(C(=O)OC(C)(C)C)C2CCCCC21 (stereo not drawn)
inactive: [1] 95 % of control | [2] 101 % of control | [3] 90 % of control | [4] 101 % of control | dose: 400.0 mg/kg/injection, schedule: Q01DX001 (ip), vehicle: Klucel (hydroxypropylcellulose) (HPC) 87 % of control | [5] 96 % of control

O=C(Nc1ccc(Cl)c(Cl)c1)OCCN(c1ccccc1)c1ccccc1
inactive: [6] 88 % of control | [7] 97 % of control | [8] 92 % of control

CCOC(=O)CCc1c(C)c2ccc(O)cc2oc1=O
inactive: [9] 98 % of control | [10] 104 % of control | [11] 94 % of control

O=c1cc(NC(c2ccccc2)c2ccccc2)[nH]c(=O)[nH]1
inactive: [2] 97 % of control | [4] 97 % of control | [5] 98 % of control

O=CN/N=C\c1cc2ccccc2c2ccccc12
inactive: [12] 96 % of control | [6] 93 % of control | [7] 93 % of control | [8] 87 % of control

COC(=O)C1C2CC/C=C\CCC21 (stereo not drawn)
inactive: [13] 91 % of control | [14] 87 % of control | dose: 400.0 mg/kg/injection, schedule: Q01DX009 (ip), vehicle: Klucel (hydroxypropylcellulose) (HPC) 91 % of control

CC(=O)Nc1[nH]ncc1C(N)=O
inactive: dose: 50.0 mg/kg/injection, schedule: Q01DX001 (ip), vehicle: Klucel (hydroxypropylcellulose) (HPC) 100 % of control | [1] 100 % of control | [3] 98 % of control

COc1cc(OC)c2c(=O)c(O)c(-c3ccc(OC)c(OC)c3)oc2c1
inactive: [15] 91 % of control | [9] 98 % of control | [10] 98 % of control | [11] 96 % of control

CC(C)CCCC(C)C1CCC2C3CC=C4CC(OC(=O)CCl)CCC4(C)C3CCC12C (stereo not drawn)
inactive: [15] 101 % of control | [9] 95 % of control | [10] 95 % of control | [11] 101 % of control

CC(C)(CCCl)N(Cc1ccccc1)Cc1ccccc1
inactive: [16] 93 % of control | [17] 99 % of control | [18] 90 % of control | [19] 95 % of control | [20] 89 % of control

CCCCCCCC/C=C\CCCCCCCC(=O)NCCOC
inactive: dose: 37.5 mg/kg/injection, schedule: Q01DX009 (ip), vehicle: saline 97 % of control | dose: 75.0 mg/kg/injection, schedule: Q01DX009 (ip), vehicle: saline 92 % of control | dose: 75.0 mg/kg/injection, schedule: Q04DX003 (ip), vehicle: saline 90 % of control | dose: 150.0 mg/kg/injection, schedule: Q01DX009 (ip), vehicle: saline 99 % of control | dose: 150.0 mg/kg/injection, schedule: Q04DX003 (ip), vehicle: saline 98 % of control | dose: 300.0 mg/kg/injection, schedule: Q04DX003 (ip), vehicle: saline 88 % of control

Cc1nc2c(=O)[nH]c(=O)[nH]c2[nH]c1=O
inactive: [21] 89 % of control | [22] 95 % of control | [23] 93 % of control | dose: 100.0 mg/kg/injection, schedule: Q01DX001 (ip), vehicle: other 96 % of control | dose: 100.0 mg/kg/injection, schedule: Q04DX003 (ip), vehicle: other 100 % of control | [24] 101 % of control | dose: 200.0 mg/kg/injection, schedule: Q01DX001 (ip), vehicle: other 102 % of control | dose: 200.0 mg/kg/injection, schedule: Q04DX003 (ip), vehicle: other 111 % of control | dose: 400.0 mg/kg/injection, schedule: Q01DX001 (ip), vehicle: other 102 % of control | dose: 400.0 mg/kg/injection, schedule: Q04DX003 (ip), vehicle: other 107 % of control

CCCCn1c(Cl)c(C(=O)O)c2ccccc21
inactive: dose: 50.0 mg/kg/injection, schedule: Q04DX003 (ip), vehicle: Klucel (hydroxypropylcellulose) (HPC) 94 % of control | [2] 91 % of control | [4] 90 % of control

CCOC(=O)[CH2][Sn]([Br])([Br])[CH2]C(=O)OCC
inactive: [25] 94 % of control | [26] 89 % of control

CN(C)C(=S)N(C)C
inactive: [12] 104 % of control | [6] 104 % of control | [16] 90 % of control | [17] 107 % of control | [7] 101 % of control | [18] 96 % of control | [19] 107 % of control | [8] 98 % of control | dose: 400.0 mg/kg/injection, schedule: Q01DX009 (ip), vehicle: saline 98 % of control | [20] 104 % of control

CC(O)c1cccc([N+](=O)[O-])c1 (stereo not drawn)
inactive: dose: 100.0 mg/kg/injection, schedule: Q01DX009 (ip), vehicle: saline with Tween-80 104 % of control | dose: 200.0 mg/kg/injection, schedule: Q01DX009 (ip), vehicle: saline with Tween-80 94 % of control | dose: 400.0 mg/kg/injection, schedule: Q01DX009 (ip), vehicle: saline with Tween-80 90 % of control

CC1=C/C(=N/NC(N)=O)CC(C)(C)C1
inactive: [9] 93 % of control | [10] 93 % of control | [11] 98 % of control

CCOC(=O)c1cc(/C=C/C=O)oc1N
inactive: [25] 106 % of control | [26] 101 % of control | dose: 400.0 mg/kg/injection, schedule: Q04DX002 (ip), vehicle: saline with Tween-80 97 % of control

Nc1ccc(S(=O)(=O)O)cc1[N+](=O)[O-]
inactive: [17] 93 % of control | [19] 95 % of control | [20] 96 % of control

CCCCNCC1COc2cccc(OCC)c2O1 (stereo not drawn)
inactive: dose: 6.25 mg/kg/injection, schedule: Q01DX009 (ip), vehicle: saline 107 % of control | dose: 12.5 mg/kg/injection, schedule: Q01DX009 (ip), vehicle: saline 105 % of control | dose: 12.5 mg/kg/injection, schedule: Q04DX003 (ip), vehicle: saline 106 % of control | dose: 25.0 mg/kg/injection, schedule: Q01DX009 (ip), vehicle: saline 108 % of control | dose: 25.0 mg/kg/injection, schedule: Q04DX003 (ip), vehicle: saline 95 % of control | dose: 50.0 mg/kg/injection, schedule: Q01DX009 (ip), vehicle: saline 113 % of control | dose: 50.0 mg/kg/injection, schedule: Q04DX003 (ip), vehicle: saline 108 % of control | [9] 103 % of control | [17] 95 % of control

O=C(Nc1c[nH]c(=O)[nH]c1=O)C(Cl)Cl
inactive: [21] 91 % of control | [22] 95 % of control | dose: 50.0 mg/kg/injection, schedule: Q01DX009 (ip), vehicle: Klucel (hydroxypropylcellulose) (HPC) 103 % of control | [23] 93 % of control | [13] 104 % of control | [24] 90 % of control | [14] 117 % of control

CNC(=O)Oc1ccccc1NC(=O)OC
inactive: dose: 25.0 mg/kg/injection, schedule: Q04DX003 (ip), vehicle: saline with Tween-80 97 % of control | dose: 50.0 mg/kg/injection, schedule: Q04DX003 (ip), vehicle: saline with Tween-80 95 % of control | dose: 100.0 mg/kg/injection, schedule: Q04DX003 (ip), vehicle: saline with Tween-80 92 % of control and 97 % of control

[Br][Hg][CH2]COC[CH2][Hg][Br]
inactive: dose: 6.25 mg/kg/injection, schedule: Q01DX009 (ip), vehicle: Klucel (hydroxypropylcellulose) (HPC) 103 % of control | dose: 12.5 mg/kg/injection, schedule: Q01DX009 (ip), vehicle: Klucel (hydroxypropylcellulose) (HPC) 93 % of control | dose: 25.0 mg/kg/injection, schedule: Q01DX009 (ip), vehicle: Klucel (hydroxypropylcellulose) (HPC) 112 % of control
